From US8759528B2, “Piperidine derivatives, pharmaceutical compositions and uses thereof” (Boehringer Ingelheim International GmbH, priority 2011, dated 2014)

Each compound was assayed against T1, human ACC2 (Homo sapiens, UniProt O00763) (assay: ACC2 spectrophotometric 384 well assay (NADH-linked, coupled lactate dehydrogenase/pyruvate kinase)). Settings: hACC2 construct lacking the 128 N-terminal amino acids; 25° C., 340 nm, 15 minutes.
T1 construct: lacks the 128 amino acids at the N-terminus for increased solubility (nt 385-6966 in Genbank entry AJ575592); made in house; host or cells: insect cells (baculoviral expression system)
Assay type: biochemical
Method: Spectrophotometric 384 Well Assay
Malonyl CoA formation by acetyl CoA carboxylases is stoichometrically linked to the consumption of ATP. ACC2 activity is measured in a NADH-linked kinetic method measuring ADP generated during the ACC reaction using a coupled lactate dehydrogenase/pyruvate kinase reaction.
For biological testing, a human ACC2 construct which lacks the 128 amino acids at the N-terminus for increased solubility (nt 385-6966 in Genbank entry AJ575592) is cloned. The protein is then expressed in insect cells using a baculoviral expression system. Protein purification is performed by anion exchange. All compounds are dissolved in dimethyl sulfoxide (DMSO) to a concentration of 10 mM.
Assay reactions are then carried out in 384-well plates, with hACC2 in an appropriate dilution and at final assay concentrations (f.c.) of 100 mM Tris (pH 7.5), 10 mM trisodium citrate, 25 mM KHCO3, 10 mM MgCl2, 0.5 mg/ml BSA, 3.75 mM reduced L-glutathione, 15 U/ml lactate dehydrogenase, 0.5 mM phosphoenolpyruvate, 15 U/ml pyruvate kinase, compounds at different concentrations at final DMSO concentrations of 1%.
The enzymatic reaction is then started by addition of a mixture of NADH, acetyl Coenzyme A (both […].) and ATP (500 uM f.c.). The decrease of the optical density (slope S) is then determined at 25° C. at a wavelength of 340 nm over 15 minutes in a spectrophotometric reader.
Each assay microtiter plate contains wells with vehicle instead of compound as controls for the non-inhibited enzyme (100% CTL; ‘HIGH’) and wells without acetyl-CoA as controls for non-specific NADH degradation (0% CTL; ‘LOW’).
The slope S is used for calculation of % CTL=(S(compound)−S(‘LOW’))/(S('HIGH)−S(‘LOW’))*100. Compounds will give values between 100% CTL (no inhibition) and 0% CTL (complete inhibition).
For IC50 value determination, the sample slope in the presence of the test compound after subtraction of the low controls (S(compound)−S(‘LOW’)) are used.
An IC50 value is derived from the compound slopes at different dosages after subtraction of the low controls (S(compound)−S(‘LOW’)) by non-linear regression curve fitting (equation y=(A+((B−A)/(1+((C/x)^D))))).

T1 sequence (O00763 129-2458 limits assumed): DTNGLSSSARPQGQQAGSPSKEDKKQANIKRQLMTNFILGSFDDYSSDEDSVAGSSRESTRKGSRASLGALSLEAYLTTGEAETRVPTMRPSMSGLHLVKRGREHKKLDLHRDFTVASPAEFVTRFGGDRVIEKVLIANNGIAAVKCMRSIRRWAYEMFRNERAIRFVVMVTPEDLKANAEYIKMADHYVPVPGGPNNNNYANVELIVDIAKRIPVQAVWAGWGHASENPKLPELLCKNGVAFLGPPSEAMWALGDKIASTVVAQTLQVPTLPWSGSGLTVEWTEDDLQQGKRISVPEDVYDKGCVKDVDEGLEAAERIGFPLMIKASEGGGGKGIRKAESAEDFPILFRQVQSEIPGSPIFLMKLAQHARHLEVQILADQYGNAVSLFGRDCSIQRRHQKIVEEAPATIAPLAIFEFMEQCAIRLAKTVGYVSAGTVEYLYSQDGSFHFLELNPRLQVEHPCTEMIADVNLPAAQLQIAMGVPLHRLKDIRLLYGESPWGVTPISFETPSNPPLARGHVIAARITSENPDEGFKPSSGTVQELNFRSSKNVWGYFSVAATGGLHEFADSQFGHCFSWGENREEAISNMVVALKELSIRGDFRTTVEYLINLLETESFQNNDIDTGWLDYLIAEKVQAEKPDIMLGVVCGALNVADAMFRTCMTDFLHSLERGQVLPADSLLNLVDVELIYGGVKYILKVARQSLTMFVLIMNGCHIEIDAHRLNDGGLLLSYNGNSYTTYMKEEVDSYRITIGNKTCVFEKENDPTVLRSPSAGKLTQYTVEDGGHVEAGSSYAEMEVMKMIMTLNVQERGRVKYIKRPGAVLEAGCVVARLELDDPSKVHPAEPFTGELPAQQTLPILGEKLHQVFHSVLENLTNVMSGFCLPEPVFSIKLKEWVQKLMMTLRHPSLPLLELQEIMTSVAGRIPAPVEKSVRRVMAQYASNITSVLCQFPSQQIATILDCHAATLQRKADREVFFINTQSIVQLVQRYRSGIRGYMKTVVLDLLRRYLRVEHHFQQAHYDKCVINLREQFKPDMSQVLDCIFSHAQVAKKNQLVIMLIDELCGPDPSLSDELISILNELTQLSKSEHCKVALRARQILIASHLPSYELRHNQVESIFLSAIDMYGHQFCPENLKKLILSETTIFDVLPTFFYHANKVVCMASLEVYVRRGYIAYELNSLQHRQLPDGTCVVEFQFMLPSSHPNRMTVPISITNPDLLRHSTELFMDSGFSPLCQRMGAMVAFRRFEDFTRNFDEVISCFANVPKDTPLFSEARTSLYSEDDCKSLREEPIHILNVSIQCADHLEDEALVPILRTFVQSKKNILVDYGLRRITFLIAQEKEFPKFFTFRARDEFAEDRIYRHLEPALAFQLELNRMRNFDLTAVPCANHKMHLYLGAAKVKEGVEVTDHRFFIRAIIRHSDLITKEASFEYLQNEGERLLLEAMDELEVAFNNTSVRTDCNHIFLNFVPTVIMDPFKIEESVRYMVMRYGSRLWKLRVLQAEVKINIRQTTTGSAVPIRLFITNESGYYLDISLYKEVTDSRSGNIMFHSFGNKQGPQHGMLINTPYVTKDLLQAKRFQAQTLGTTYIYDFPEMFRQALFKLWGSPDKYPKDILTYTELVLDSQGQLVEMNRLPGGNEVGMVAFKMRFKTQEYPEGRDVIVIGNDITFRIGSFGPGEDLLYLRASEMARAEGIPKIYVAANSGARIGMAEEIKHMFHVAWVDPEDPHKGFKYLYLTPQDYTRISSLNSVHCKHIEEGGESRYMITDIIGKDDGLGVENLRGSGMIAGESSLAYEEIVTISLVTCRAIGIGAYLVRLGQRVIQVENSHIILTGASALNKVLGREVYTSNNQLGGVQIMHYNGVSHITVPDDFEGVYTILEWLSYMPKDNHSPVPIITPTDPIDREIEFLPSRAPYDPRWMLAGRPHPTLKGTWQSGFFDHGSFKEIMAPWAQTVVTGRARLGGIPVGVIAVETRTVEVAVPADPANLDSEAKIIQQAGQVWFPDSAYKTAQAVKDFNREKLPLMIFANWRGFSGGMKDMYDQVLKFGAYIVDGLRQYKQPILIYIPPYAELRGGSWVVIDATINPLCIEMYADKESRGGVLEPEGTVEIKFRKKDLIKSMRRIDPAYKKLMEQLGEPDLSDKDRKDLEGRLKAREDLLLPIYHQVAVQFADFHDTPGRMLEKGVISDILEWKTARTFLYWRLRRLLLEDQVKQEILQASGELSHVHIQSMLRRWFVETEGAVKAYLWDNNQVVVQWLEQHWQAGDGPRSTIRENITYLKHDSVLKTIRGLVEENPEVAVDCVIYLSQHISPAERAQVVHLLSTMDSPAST

IC50	SMILES
650 nM	CCOc1ccc(N2CCC(c3ccc(C(C)C(=O)NCC4CC4)cc3)CC2)cc1 (stereo not drawn) [Example 4.16]
890 nM	CCNC(=O)C(C)c1ccc(C2CCN(c3ccc(OC(C)CC)cc3)CC2)cc1 (stereo not drawn) [Example 1.4]
4830 nM	COCCNC(=O)Cc1ccc(C2CCN(c3ccnc(N(C)C4CCCC4)n3)CC2)cc1 [Example 4.14]
360 nM	CCNC(=O)C(C)c1ccc(N2CCC(c3ccc(OCC4CC4)cc3)CC2)cc1 (stereo not drawn) [Example 7.5]
770 nM	CCOc1ccc(N2CCC(c3ccc(C(C)C(N)=O)cc3)CC2)cc1 (stereo not drawn) [Example 4.17]
630 nM	CCNC(=O)C(C)c1ccc(C2CCN(c3ccnc(N(C)C)n3)CC2)cc1 (stereo not drawn) [Example 5.2]
140 nM	CCOc1ccc(N2CCC(c3ccc(C(C)C(=O)NC4CC4)cc3)CC2)c(C#N)c1 (stereo not drawn) [Example 3.3]
150 nM	CC(C(=O)NC1CC1)c1ccc(C2CCN(c3ccc(OCC4CC4)cc3C#N)CC2)cc1 (stereo not drawn) [Example 3.1, 2-{4-[1-(2-Cyano-4-cyclopropylmethoxy-phenyl)-piperidin-4-yl]-phenyl}-N-cyclopropyl-propionamide]
140 nM	CCOc1ccc(N2CCC(c3ccc(C(C)C(=O)NC4CC4)cc3)CC2)c(F)c1 (stereo not drawn) [Example 1.13]
1650 nM	CCNC(=O)C(C)c1ccc(N2CCC(c3cccc(OC4CCC4)c3)CC2)cc1 (stereo not drawn) [Example 7.8]
840 nM	CCCOc1ccc(C2CCN(c3ccc(C(C)C(=O)NCC)cc3)CC2)c(C)c1 (stereo not drawn) [Example 7.10]
450 nM	CCNC(=O)C(C)c1ccc(C2CCN(c3ccc(OC)cc3C#N)CC2)cc1 (stereo not drawn) [Example 3.2]
4180 nM	CN(c1nccc(N2CCC(c3ccc(CC(=O)NC4CCCC4)cc3)CC2)n1)C1CCCC1 [Example 4.10]
890 nM	CCOc1ccc(C2CCN(c3ccc(C(C)C(=O)NC4CC4)cc3)CC2)cc1 (stereo not drawn) [Example 7.3]
370 nM	CCNC(=O)C(C)c1ccc(C2CCN(c3ccnc(N(C)C4CCCC4)n3)CC2)cc1 (stereo not drawn) [Example 5.1, 2-(4-{1-[2-(Cyclopentyl-methyl-amino)-pyrimidin-4-yl]-piperidin-4-yl}-phenyl)-N-ethyl-propionamide]
240 nM	CCNC(=O)C(C)c1ccc(C2CCN(c3ccc(OCC)cc3)CC2)cc1 (stereo not drawn) [Example 1.1, 2-{-4-[1-(4-Ethoxy-phenyl)-piperidin-4-yl]-phenyl}-N-ethyl-propionamide]
210 nM	CCNC(=O)C(C)c1ccc(C2CCN(c3ccc(OC4CC4)cc3)CC2)cc1 (stereo not drawn) [Example 1.2]
2310 nM	CCNC(=O)C(C)c1ccc(N2CCC(c3cccc(OCC4CC4)c3)CC2)cc1 (stereo not drawn) [Example 7.6]
5210 nM	CCOc1ccc(N2CCC(c3ccc(C(C)C(=O)N(C)CC)cc3)CC2)cc1 (stereo not drawn) [Example 4.5]
7940 nM	CN(c1nccc(N2CCC(c3ccc(CC(=O)NCc4ccccc4)cc3)CC2)n1)C1CCCC1 [Example 4.12]
320 nM	CCCOc1ccc(N2CCC(c3ccc(C(C)C(=O)NCC)cc3)CC2)c(OC)c1 (stereo not drawn) [Example 1.7]
3850 nM	CCCOc1cccc(C2CCN(c3ccc(C(C)C(=O)NCC)cc3)CC2)c1 (stereo not drawn) [Example 7.11]
120 nM	CCNC(=O)C(C)c1ccc(N2CCC(c3ccc(OC4CCC4)cc3)CC2)cc1 (stereo not drawn) [Example 7.9]
100 nM	CCOc1ccc(N2CCC(c3ccc(C(C)C(=O)NC4CC4)cc3)CC2)cc1 (stereo not drawn) [Example 4.1, N-Cyclopropyl-2-{4-[1-(4-ethoxy-phenyl)-piperidin-4-yl]-phenyl}-propionamide]
1260 nM	CN(c1nccc(N2CCC(c3ccc(CC(N)=O)cc3)CC2)n1)C1CCCC1 [Example 4.7]
330 nM	CCNC(=O)C(C)c1ccc(C2CCN(c3ccc(OCC)cc3F)CC2)cc1 (stereo not drawn) [Example 1.12]
120 nM	CCCOc1ccc(N2CCC(c3ccc(C(C)C(=O)NC4CC4)cc3)CC2)c(C#N)c1 (stereo not drawn) [Example 3.4]

IC50	SMILES
750 nM	CCNC(=O)C(C)c1ccc(C2CCN(c3ccc(OCC4CC4)cc3OC)CC2)cc1 (stereo not drawn) [Example 2.1, 2-{-4-[1-(4-Cyclopropylmethoxy-2-methoxy-phenyl)-piperidin-4-yl]-phenyl}-N-ethyl-propionamide]
5530 nM	CN(c1nccc(N2CCC(c3ccc(CC(=O)N4CCOCC4)cc3)CC2)n1)C1CCCC1 [Example 4.9]
5480 nM	CCNC(=O)C(C)c1ccc(C2CCN(c3ccnc(OCC)n3)CC2)cc1 (stereo not drawn) [Example 6.1, 2-{4-[1-(2-Ethoxy-pyrimidin-4-yl)-piperidin-4-yl]-phenyl}-N-ethyl-propionamide]
760 nM	CCOc1ccc(N2CCC(c3ccc(C(C)C(=O)NC)cc3)CC2)cc1 (stereo not drawn) [Example 4.3]
1000 nM	CCNC(=O)C(C)c1ccc(N2CCC(c3ccc(OCC)cc3)CC2)cc1 (stereo not drawn) [Example 7.1, 2-{4-[4-(4-Ethoxy-phenyl)-piperidin-1-yl]-phenyl}-N-ethyl-propionamide]
180 nM	CCCOc1ccc(N2CCC(c3ccc(C(C)C(=O)NCC)cc3)CC2)cc1 (stereo not drawn) [Example 1.8]
400 nM	CCNC(=O)Cc1ccc(C2CCN(c3ccnc(N(C)C4CCCC4)n3)CC2)cc1 [Example 4.2]
80 nM	CCOc1ccc(N2CCC(c3ccc(C(C)C(=O)Nc4ccccc4)cc3)CC2)cc1 (stereo not drawn) [Example 4.6]
250 nM	CCNC(=O)C(C)c1ccc(C2CCN(c3ccc(OC4CCC4)cc3OC)CC2)cc1 (stereo not drawn) [Example 2.2]
6650 nM	CCOc1ccc(N2CCC(c3ccc(C(C)C(=O)N(C)C)cc3)CC2)cc1 (stereo not drawn) [Example 4.4]
7630 nM	CCNC(=O)C(C)c1ccc(C2CCN(c3ccnc(NC(C)C)n3)CC2)cc1 (stereo not drawn) [Example 5.3]
80 nM	CC(C(=O)NC1CC1)c1ccc(C2CCN(c3ccc(OCC4CC4)cc3)CC2)cc1 (stereo not drawn) [Example 1.14]
1860 nM	CC(C)CNC(=O)Cc1ccc(C2CCN(c3ccnc(N(C)C4CCCC4)n3)CC2)cc1 [Example 4.13]
240 nM	CCNC(=O)C(C)c1ccc(C2CCN(c3ccc(OCC4CC4)cc3)CC2)cc1 (stereo not drawn) [Example 1.3]
510 nM	CCNC(=O)C(C)c1ccc(C2CCN(c3ccc(OC(C)C)cc3OC)CC2)cc1 (stereo not drawn) [Example 1.9]
520 nM	CCNC(=O)C(C)c1ccc(C2CCN(c3ccc(OC4CC4)cc3OC)CC2)cc1 (stereo not drawn) [Example 1.11]
220 nM	CCCOc1ccc(C2CCN(c3ccc(C(C)C(=O)NCC)cc3)CC2)cc1 (stereo not drawn) [Example 7.4]
290 nM	CCCNC(=O)C(C)c1ccc(C2CCN(c3ccc(OCC)cc3)CC2)cc1 (stereo not drawn) [Example 4.15]
1800 nM	CCNC(=O)C(C)c1ccc(N2CCC(c3cccc(OC(C)C)c3)CC2)cc1 (stereo not drawn) [Example 7.12]
12500 nM	CCN(C)C(=O)Cc1ccc(C2CCN(c3ccnc(N(C)C4CCCC4)n3)CC2)cc1 [Example 4.8]
720 nM	CN(c1nccc(N2CCC(c3ccc(CC(=O)Nc4ccccc4)cc3)CC2)n1)C1CCCC1 [Example 4.11]
340 nM	CCNC(=O)C(C)c1ccc(N2CCC(c3ccc(OC(C)C)cc3)CC2)cc1 (stereo not drawn) [Example 7.7]
120 nM	CCNC(=O)C(C)c1ccc(C2CCN(c3ccc(OC4CCC4)cc3)CC2)cc1 (stereo not drawn) [Example 1.5]
3050 nM	CCNC(=O)C(C)c1ccc(C2CCN(c3ccnc(OC(C)C)n3)CC2)cc1 (stereo not drawn) [Example 6.2]
4840 nM	CCNC(=O)C(C)c1ccc(N2CCC(c3cccc(OCC)c3)CC2)cc1 (stereo not drawn) [Example 7.13]
1010 nM	CCNC(=O)C(C)c1ccc(N2CCC(c3ccc(OCC4CC4)cc3F)CC2)cc1 (stereo not drawn) [Example 7.2]
510 nM	CCNC(=O)C(C)c1ccc(C2CCN(c3ccnc(OCC)c3)CC2)cc1 (stereo not drawn) [Example 1.6]
